Reference: US20220154204A1, “ENHANCING DROUGHT, SALINITY AND COLD TOLERANCE IN PLANTS AND TREES” (The Regents of the University of California, priority 2019, published 2022)

Experiments:
OST1/SnRK2.6 [1] = assay: In vivo Ser-171 phosphorylation of OST1/SnRK2.6-GFP in mesophyll cell protoplasts by LC-MS/MS; assay type: cell-based, Arabidopsis; details: 20 μM ABA for 15 min vs control
Experimental: 30 μg GST-OST1/SnRK2.6(D140A) and 2.5 μg GST-M3Kδ1 kinase domain were incubated in phosphorylation buffer (50 mM Tris-HCl pH 7.5, 10 mM MgCl2, 0.1% Triton X-100, and 1 mM DTT) with 1 mM ATP for 2 hr at room temperature. Proteins were precipitated by acetone precipitation and dissolved in SDS-PAGE loading buffer. After SDS-PAGE and CBB staining, protein bands of GST-OST1/SnRK2.6(D140A) were excised and analyzed by LC-MS/MS^17. For in vivo Ser-171 phosphorylation, OST1/SnRK2.6-GFP was transiently expressed in Arabidopsis mesophyll cell protoplasts. The protoplasts were incubated with or without 20 μM ABA for 15 min, and OST1/SnRK2.6 proteins were purified by immunoprecipitation using anti-GFP antibodies. After SDS-PAGE and CBB staining, OST1/SnRK2.6-GFP bands were excised and analyzed by LC-MS/MS^17
a, The sequence of identified phosphorylated peptide by mass spectrometry. OST1/SnRK2.6-GFP was expressed in Arabidopsis mesophyll cell protoplasts and purified by immunoprecipitation with GFP antibodies before or after 20 μM ABA treatment for 15 min. S(+79.97) indicates phosphorylated serine residues. Values (Control and ABA) indicate normalized peak areas for phosphorylated peptides. The phosphorylated peptide was not detected in the control sample.

SLAC1 = assay: Two-electrode voltage clamp recordings of SLAC1 currents in Xenopus oocytes; assay type: cell-based, Arabidopsis; details: Xenopus oocytes co-injected with PYL9/RCAR1, ABI1, OST1/SnRK2.6, SLAC1 with or without M3Ks, 50 μM ABA
Excerpt: The PCR amplified cDNA fragments of OST1, SLAC1, PYL9/RCAR1, ABI1, M3Kδ1, M3Kδ6 and M3Kδ7 were cloned into the oocyte expression vector pNB1 by using an advanced uracil-excision based cloning strategy as previously described^60. The mutant isoforms OST1-S171A, M3Kδ6-K775W and M3Kδ7-K740W were generated using the Quikchange Site-Directed Mutagenesis kit (Agilent Technologies). Linearized plasmids were used to generate cRNAs via the mMESSAGE mMACHINE® T7 kit (Thermo Fisher Scientific, Catalog number: AM1344). […] Steady state currents were recorded with 3 second voltage pulses ranging from +40 mV to −120 mV in −20 mV decrements, followed by a “tail” voltage of −120 mV and the holding potential was kept at 0 mV.
SLAC1-mediated currents in oocytes vary showing either time-dependent relaxation or more instantaneous currents when using a chloride bath solution^61,62. […] To avoid time-of-measurement and inter-batch dependence in the data, H2O-injected control and other indicated controls were included in each batch of oocytes and control experiments were recorded intermittently with the investigated conditions.
a and b, In vitro reconstitution of ABA-induced OST1/SnRK2 activation without M3Kδ6 (a) or with M3Kδ6 (b). […] Phosphorylation of AKS1 is detected by binding of 14-3-3Phi (At1g35160) to the phosphorylated AKS1 protein^15. […]

S-type anion channels = assay: Patch-clamp analyses of S-type anion channel currents in guard cell protoplasts; assay type: cell-based, Arabidopsis; details: 10 μM, guard cells of wildtype (Col-0) and HsMYO control line
Experimental: Guard cell protoplasts from 4 to 6 week-old Arabidopsis plants were prepared^24,33 ABA-activated S-type anion channel current recordings were carried out by using an Axon 200A amplifier (Axon instruments) and a Digidata 1440A low-noise data acquisition system. Epidermal tissues were isolated from one or two rosette leaves and collected using a nylon mesh (100-μm pore size). […]
S-type anion currents in guard cell protoplasts were recorded using the whole-cell patch-clamp technique^24,33. […]
a, Leaves from m3k amiRNAi and the control amiRNA-HsMYO line (expressing an amiRNA targeting human myosin 2), which has no target gene in Arabidopsis plants were analyzed in time-resolved stomatal conductance analyses in which 1 μM ABA was added to the transpiration stream via the petiole (as described in e.g., Ceciliato, P. et al. Plant Methods 15, doi:10.1186/s13007-019-0423-y (2019)) as indicted by the red arrowhead (n=3 leaves from 3 independent plants per genotype, +/−s.d.). b, Normalized relative stomatal conductance to the first data point shown in (a). c-h, ABA-activated S-type anion channel currents were investigated by patch-clamp analyses using guard cell protoplasts from the wildtype parent Col-0 (c, d), the HsMYO amiRNA control line (e, f), and the m3k amiRNA line (g, h). […]

OST1/SnRK2.6 [2] = target: T1, OST1/SnRK2.6 (Arabidopsis thaliana, UniProt Q940H6); assay: In vitro phosphorylation assay of CIAP-dephosphorylated GST-OST1/SnRK2.6 with other protein kinases; assay type: biochemical; details: GST-OST1/SnRK2.6 dephosphorylated by CIAP, [γ-32P]-ATP
T1 construct: made in house; host or cells: E. coli
T1 sequence (Q940H6 1-362): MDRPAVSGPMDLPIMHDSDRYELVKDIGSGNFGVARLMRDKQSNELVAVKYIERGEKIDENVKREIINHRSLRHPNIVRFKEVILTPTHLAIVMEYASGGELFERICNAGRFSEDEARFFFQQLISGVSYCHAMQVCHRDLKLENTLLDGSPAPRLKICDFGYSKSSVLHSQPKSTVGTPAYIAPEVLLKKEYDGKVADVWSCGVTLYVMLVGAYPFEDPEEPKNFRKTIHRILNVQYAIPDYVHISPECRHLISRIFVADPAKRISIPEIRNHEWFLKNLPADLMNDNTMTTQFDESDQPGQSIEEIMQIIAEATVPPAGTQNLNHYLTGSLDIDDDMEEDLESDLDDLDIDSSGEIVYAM
Experimental: We investigated phosphorylation of purified recombinant GST-tagged OST1/SnRK2.6 protein kinase after dephosphorylation in vitro. To test whether OST1/SnRK2.6 could be re-activated by autophosphorylation, after dephosphorylation, the GST-OST1/SnRK2.6 protein bound on glutathione sepharose 4B resin was incubated with calf intestinal alkaline phosphatase (CIAP), and [γ-^32P]-ATP was added to the reaction after wash out of CIAP. […] Therefore, another unknown protein kinase may be required for reversible ABA signal transduction.
10 μg GST-OST1/SnRK2.6 proteins were bound to glutathione sepharose 4B beads and incubated with 30 U CIAP for 2 hr at room temperature. […]
a, Seeds of amiR-HsMYO wild-type (control line) or amiR-ax1117 mutant were sowed on ½ MS medium containing 2 μM ABA, or 0.02% EtOH as control, for germination assays. Representative images showing seed germination after 6 days. b, The percentage of seedlings showing green cotyledons was analyzed. […] In-gel kinase assays were performed using histone type III-S as a substrate. e, SnRK2 band intensities as shown in (d) were measured using ImageJ, n=3 experiments, error bars show +/−s.e.m. f, Recombinant GST-OST1/SnRK2.6 protein was dephosphorylated by alkaline phosphatase in vitro and used for in vitro phosphorylation assays after incubation with CPK6, CPK23 or MPK12 protein kinases. […]

**Q.** Which results are given for `CC1=CC(=O)CC(C)(C)[C@@]1(O)/C=C/C(C)=C\C(=O)O` [ABA, abscisic acid]?
**A.** phosphorylation of OST1 Ser171 in mesophyll cells (OST1/SnRK2.6 [1]): clearly phosphorylated; ABA-dependent SLAC1 anion channel activation (SLAC1): could activate SLAC1 in oocytes only in the presence of low concentrations of either M3Kδ1, M3Kδ6 or M3Kδ7 mRNAs; activation of S-type anion currents in guard cells (S-type anion channels): typical ABA activation of S-type anion currents

**Q.** How did the “phosphorylation of OST1/SnRK2.6 after dephosphorylation” value (OST1/SnRK2.6 [2]) turn out when “CPK23: calcium-dependent protein kinase of ABA signalling” was run?
**A.** did not phosphorylate
